Usually pIC50 stands for the negative decadic logarithm of the IC50, by convention in mol/L. The term inhibition denotes the relative decrease from the control value, in per cent. One may read the ED50 as the midpoint of the dose-response relation.

Series [1] deals with Rattus norvegicus. Kind of series: Cardiotoxicity in Wistar rat assessed as effect on heart rate at 5 mg/kg, iv measured after 1 min (reference value: 323 to 374.5 bpm). It counts as toxicity, organism-based. To be noted: in vivo.
For series [2], the target named is Adrenergic receptor alpha-1 (Rattus norvegicus) (UniProt P15823+P23944+P43140). Description: Displacement of [3H][…]prazosin from adrenergic alpha1 receptor in Wistar rat cortex at 10^-5 M incubated for 30 mins by microbeta liquid scintillation counting analysis. For orientation: In a radioligand displacement assay an active substance lowers the binding of a labelled ligand.

Series [3] has as its system Rattus norvegicus. Description: Hypotensive activity in normotensive Wistar rat assessed as systolic blood pressure at 5 mg/kg, iv measured after 20 mins (reference value: 119.2 to 148.6 mmHg). It counts as functional.
Series [4] deals with Beta-1 adrenergic receptor (Rattus norvegicus, UniProt P18090). Kind of series: Displacement of [3H]-CGP-12177 from adrenergic beta1 receptor in Wistar rat cortex incubated for 60 mins by microbeta liquid scintillation counting analysis.
Sequence of Beta-1 adrenergic receptor (P18090 whole entry): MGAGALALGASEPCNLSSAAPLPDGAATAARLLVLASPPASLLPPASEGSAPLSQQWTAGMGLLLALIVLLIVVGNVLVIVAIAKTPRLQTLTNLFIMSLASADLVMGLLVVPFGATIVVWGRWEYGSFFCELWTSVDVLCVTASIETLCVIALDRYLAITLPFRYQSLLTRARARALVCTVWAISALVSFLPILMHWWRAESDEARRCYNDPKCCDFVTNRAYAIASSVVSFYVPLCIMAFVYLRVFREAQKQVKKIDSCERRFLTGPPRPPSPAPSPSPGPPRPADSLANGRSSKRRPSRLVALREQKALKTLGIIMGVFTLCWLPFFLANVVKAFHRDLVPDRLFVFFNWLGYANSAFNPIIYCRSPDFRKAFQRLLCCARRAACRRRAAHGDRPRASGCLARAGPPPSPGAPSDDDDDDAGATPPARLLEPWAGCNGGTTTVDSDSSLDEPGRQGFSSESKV
The subject of series [5] is Rattus norvegicus. Kind of series: Hypotensive activity in normotensive Wistar rat assessed as diastolic blood pressure at 5 mg/kg, iv measured after 20 mins (reference value: 86.5 to 119.4 mmHg). It counts as functional.
Series [6] deals with Rattus norvegicus. Description: Cardiotoxicity in Wistar rat assessed as effect on heart rate at 5 mg/kg, iv measured after 15 mins (reference value: 323 to 374.5 bpm). Type of series: toxicity, organism-based. As to conditions: in vivo, 0.25 h.
Series [7] has as its system Rattus norvegicus. Kind of series: Cardiotoxicity in Wistar rat assessed as effect on QT interval time at 5 mg/kg, iv measured after 1 min (reference value: 57.7 to 61 ms). As to conditions: in vivo. It counts as toxicity, organism-based.
Series [8] has as its system Rattus norvegicus. Kind of series: Hypotensive activity in normotensive Wistar rat assessed as diastolic blood pressure at 5 mg/kg, iv measured after 30 mins (reference value: 86.5 to 119.4 mmHg). It counts as functional.
In series [9] the test system is Rattus norvegicus. Kind of series: Hypotensive activity in normotensive Wistar rat assessed as reduction in systolic blood pressure administered iv measured after 60 mins. It counts as functional.
In series [10] the test system is Rattus norvegicus. Description: Hypotensive activity in normotensive Wistar rat assessed as systolic blood pressure at 5 mg/kg, iv measured after 5 mins (reference value: 119.2 to 148.6 mmHg). It counts as functional.
Series [11] concerns Rattus norvegicus. Kind of series: Hypotensive activity in normotensive Wistar rat assessed as systolic blood pressure at 5 mg/kg, iv measured after 30 mins (reference value: 119.2 to 148.6 mmHg). Type of series: functional.
The target in series [12] is Adrenergic receptor alpha-2 (Rattus norvegicus) (UniProt P22086+P19328+P22909). Kind of series: Displacement of [3H]-clonidine from adrenergic alpha2 receptor in Wistar rat cortex at 10^-5 M incubated for 25 mins by microbeta liquid scintillation counting analysis.
The test system of series [13] is Rattus norvegicus. Description: Hypotensive activity in normotensive Wistar rat assessed as diastolic blood pressure at 5 mg/kg, iv measured after 10 mins (reference value: 86.5 to 119.4 mmHg). It counts as functional.
Series [14] deals with Rattus norvegicus. Description: Cardiotoxicity in Wistar rat assessed as effect on PQ interval time at 5 mg/kg, iv measured after 1 min (reference value: 52 to 57 ms). Type of series: toxicity, organism-based. As to conditions: in vivo.
For series [15], the system named is Rattus norvegicus. Description: Cardiotoxicity in Wistar rat assessed as effect on QTC interval time at 5 mg/kg, iv measured after 5 mins (reference value: 136.7 to 146.2 ms). It counts as toxicity, organism-based. To be noted: in vivo.
The test system of series [16] is Blood. Kind of series: Anti-aggregative activity in Wistar rat whole blood assessed as inhibition of collagen-induced aggregation preincubated for 3 mins followed by collagen induction measured for 6 mins. Type of series: functional, tissue-based.
The test system of series [17] is Rattus norvegicus. Kind of series: Hypotensive activity in normotensive Wistar rat assessed as diastolic blood pressure at 5 mg/kg, iv measured after 60 mins (reference value: 86.5 to 119.4 mmHg). Type of series: functional.
Series [18] relates to Rattus norvegicus. Description: Cardiotoxicity in Wistar rat assessed as effect on QTC interval time at 5 mg/kg, iv measured after 15 mins (reference value: 136.7 to 146.2 ms). Type of series: toxicity, organism-based. To be noted: in vivo, 0.25 h.
Series [19] has as its system Rattus norvegicus. Kind of series: Cardiotoxicity in Wistar rat assessed as effect on QTC interval time at 5 mg/kg, iv measured after 1 min (reference value: 136.7 to 146.2 ms). It counts as toxicity, organism-based. To be noted: in vivo.
For series [20], the system named is Rattus norvegicus. Kind of series: Cardiotoxicity in Wistar rat assessed as effect on QT interval time at 5 mg/kg, iv measured after 5 mins (reference value: 57.7 to 61 ms). To be noted: in vivo. It counts as toxicity, organism-based.
The subject of series [21] is Rattus norvegicus. Description: Cardiotoxicity in Wistar rat assessed as effect on PQ interval time at 5 mg/kg, iv measured after 15 mins (reference value: 52 to 57 ms). Type of series: toxicity, organism-based. As to conditions: in vivo, 0.25 h.
The test system of series [22] is Rattus norvegicus. Description: Cardiotoxicity in Wistar rat assessed as effect on QRS interval time at 5 mg/kg, iv measured after 1 min (reference value: 16.7 to 20.7 ms). Type of series: toxicity, organism-based. To be noted: in vivo.
Series [23] relates to Rattus norvegicus. Kind of series: Cardiotoxicity in Wistar rat assessed as effect on PQ interval time at 5 mg/kg, iv measured after 5 mins (reference value: 52 to 57 ms). Type of series: toxicity, organism-based. To be noted: in vivo.
For series [24], the system named is Rattus norvegicus. Kind of series: Cardiotoxicity in Wistar rat assessed as effect on heart rate at 5 mg/kg, iv measured after 5 mins (reference value: 323 to 374.5 bpm). Type of series: toxicity, organism-based. As to conditions: in vivo.
Series [25] concerns Rattus norvegicus. Kind of series: Hypotensive activity in normotensive Wistar rat assessed as systolic blood pressure at 5 mg/kg, iv measured after 60 mins (reference value: 119.2 to 148.6 mmHg). Type of series: functional.
The test system of series [26] is Rattus norvegicus. Description: Cardiotoxicity in Wistar rat assessed as effect on QRS interval time at 5 mg/kg, iv measured after 15 mins (reference value: 16.7 to 20.7 ms). Type of series: toxicity, organism-based. To be noted: in vivo, 0.25 h.
Series [27] deals with Rattus norvegicus. Kind of series: Hypotensive activity in normotensive Wistar rat assessed as systolic blood pressure at 5 mg/kg, iv measured after 10 mins (reference value: 119.2 to 148.6 mmHg). It counts as functional.
For series [28], the system named is Rattus norvegicus. Kind of series: In vivo inhibition of beta adrenoceptor in Wistar rat assessed as reduction in isoprenaline-induced tachycardia at 5 mg/kg, iv administered as single dose 10 mins prior to isoprenaline injection. It counts as functional, organism-based.
Series [29] concerns the target Beta-2 adrenergic receptor (Cavia porcellus, UniProt Q8K4Z4). Description: Antagonist activity at adrenergic beta2 receptor in isolated guinea pig trachea assessed as inhibition of isoprenaline-induced bronchodilation incubated for 20 mins. It counts as functional. To be noted: read-out: pA2 (converted).
Series [30] has as its system Rattus norvegicus. Kind of series: Cardiotoxicity in Wistar rat assessed as effect on QT interval time at 5 mg/kg, iv measured after 15 mins (reference value: 57.7 to 61 ms). Type of series: toxicity, organism-based. As to conditions: in vivo, 0.25 h.
Series [31] concerns Rattus norvegicus. Description: Hypotensive activity in normotensive Wistar rat assessed as diastolic blood pressure at 5 mg/kg, iv measured after 5 mins (reference value: 86.5 to 119.4 mmHg). It counts as functional.
Series [32] relates to Rattus norvegicus. Kind of series: Cardiotoxicity in Wistar rat assessed as effect on QRS interval time at 5 mg/kg, iv measured after 5 mins (reference value: 16.7 to 20.7 ms). Type of series: toxicity, organism-based. To be noted: in vivo.
The subject of series [33] is Rattus norvegicus. Description: In vivo inhibition of beta adrenoceptor in Wistar rat assessed as reduction in isoprenaline-induced tachycardia at 1 mg/kg, iv administered as single dose 10 mins prior to isoprenaline injection. It counts as functional, organism-based.
Series [34] relates to Rattus norvegicus. Kind of series: Antiarrhythmic activity in Wistar rat assessed as inhibition of adrenaline-induced premature ventricular extrasystoles administered iv 15 mins prior to adrenaline challenge. It counts as functional.
The subject of series [35] is Blood. Kind of series: Anti-aggregative activity in Wistar rat whole blood assessed as inhibition of collagen-induced aggregation up to 100 uM preincubated for 3 mins followed by collagen induction measured for 6 mins. Type of series: functional, tissue-based.
In series [36] the test system is Blood. Description: Anti-aggregative activity in Wistar rat whole blood assessed as inhibition of collagen/adrenaline-induced aggregation up to 100 uM preincubated for 3 mins followed by collagen induction measured for 6 mins. It counts as functional, tissue-based.
Series [37] can be described thus: (§1) Inhibition of voltage gated calcium channel in Wistar rat aorta assessed as relaxation of KCl-precontracted aortic rings by measuring reduction in calcium entry in presence of phentolamine.
The species entered for series [38] is Rattus norvegicus. The description is as §1.

pIC50: −log10 of the molar value. Calls of active or inactive are those of the source. The rule behind the calls is not given here.

Sequence of Beta-2 adrenergic receptor (Q8K4Z4 whole entry): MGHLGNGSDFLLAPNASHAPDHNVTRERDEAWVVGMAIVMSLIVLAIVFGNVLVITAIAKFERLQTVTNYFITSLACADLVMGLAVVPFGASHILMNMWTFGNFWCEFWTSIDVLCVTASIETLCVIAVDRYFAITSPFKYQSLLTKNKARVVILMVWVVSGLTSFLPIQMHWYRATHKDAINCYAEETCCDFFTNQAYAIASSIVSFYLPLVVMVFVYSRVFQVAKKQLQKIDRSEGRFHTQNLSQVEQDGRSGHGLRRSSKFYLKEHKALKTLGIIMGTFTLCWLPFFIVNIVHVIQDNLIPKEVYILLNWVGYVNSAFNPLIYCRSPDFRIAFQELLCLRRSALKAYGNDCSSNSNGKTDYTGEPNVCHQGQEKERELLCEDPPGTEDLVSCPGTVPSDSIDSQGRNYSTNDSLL

Consider `Cc1cccc2c(=O)c3ccc(OCC(O)CNC(C)(C)C)cc3oc12.Cl` (racemic), for which the Activity in the series with Rattus norvegicus [1] turned out to be 337 bpm; in the series on Rattus norvegicus [3], 160 mmHg; in the series on Rattus norvegicus [5], 126 mmHg; in the series on Rattus norvegicus [6], 339.2 bpm; in the series with Rattus norvegicus [8], 123.8 mmHg; in the series on Rattus norvegicus [10] it was 166.6 mmHg. Besides, the Activity in the series on Rattus norvegicus [11] is listed as 155.8 mmHg; with Rattus norvegicus [13], 125 mmHg; with Rattus norvegicus [17], 114 mmHg; in the series on Rattus norvegicus [24], 310 bpm; with Rattus norvegicus [25], 144 mmHg; in the series on Rattus norvegicus [27] it was 159.2 mmHg. For the same compound, in the series on Rattus norvegicus [31], the Activity worked out at 129.2 mmHg. Besides, the result (in series [2]; with Rattus norvegicus [9]; in series [12]) was inactive. Further, the figures for the pIC50 (in series [4]; with Blood [16]) were 6.11 and 4.20, respectively. Besides, the Time in the series on Rattus norvegicus [7] turned out to be 59 ms; with Rattus norvegicus [14], 60.5 ms; with Rattus norvegicus [15], 135.2 ms; with Rattus norvegicus [18], 138.9 ms; in the series with Rattus norvegicus [19], 139.8 ms; in the series on Rattus norvegicus [20], 59.5 ms. Further, the Time with Rattus norvegicus [21] came to 55.5 ms; in the series with Rattus norvegicus [22] it was 18 ms; in the series on Rattus norvegicus [23], 59.5 ms; in the series with Rattus norvegicus [26], 18.5 ms; in the series on Rattus norvegicus [30], 58.5 ms; in the series on Rattus norvegicus [32], 18.2 ms. Further, the inhibition entry with Blood [16] was “Dose-dependent effect”. For the same compound, in the series with Rattus norvegicus [28], the inhibition entry is “Active”. The Kb in [29] is 0.655 µM.
For `COc1ccccc1OCCNCC(O)COc1cccc2[nH]c3ccccc3c12` (stereo unspecified) [CARVEDILOL], in the series on Rattus norvegicus [33], the inhibition result was “Active”. Further, the ED50 in the series on Rattus norvegicus [34] was found to be 1.05 mg/kg. The inhibition result in the series on Blood [35] and in the series with Blood [36] was “inactive” in each case.
As for `CC(C)NCC(O)COc1cccc2ccccc12` (stereo unspecified) [PROPRANOLOL], in the series with Rattus norvegicus [34], the ED50 was found to be 0.36 mg/kg.
As for `COc1ccc(CCN(C)CCCC(C#N)(c2ccc(OC)c(OC)c2)C(C)C)cc1OC` (stereo unspecified) [VERAPAMIL], the pIC50 in series [37] is 7.48. Besides, the inhibition result in the series filed under Rattus norvegicus [38] was “Dose-dependent effect”; in the series listed under Rattus norvegicus [38] (concentration not given here), 95%.
